Measured values taken from publication PMC8329121 (Journal of Neuroimmune Pharmacology, 2021).
Substitutions are numbered along the chain they refer to.

Assays:
[1] = biological target: T1, E2C-I159C hDAT (C90A/C306A/I159C) (Homo sapiens, UniProt Q01959, C306A/C90A/I159C); test: MTSET assay, [3H]DA uptake in HEK293 cells; format: cell-based
T1 construct: expressed in transfected cells; host or cells: HEK293 cells, transient, pcDNA3.1+
T1 sequence (Q01959 1-620 C90A/I159C/C306A): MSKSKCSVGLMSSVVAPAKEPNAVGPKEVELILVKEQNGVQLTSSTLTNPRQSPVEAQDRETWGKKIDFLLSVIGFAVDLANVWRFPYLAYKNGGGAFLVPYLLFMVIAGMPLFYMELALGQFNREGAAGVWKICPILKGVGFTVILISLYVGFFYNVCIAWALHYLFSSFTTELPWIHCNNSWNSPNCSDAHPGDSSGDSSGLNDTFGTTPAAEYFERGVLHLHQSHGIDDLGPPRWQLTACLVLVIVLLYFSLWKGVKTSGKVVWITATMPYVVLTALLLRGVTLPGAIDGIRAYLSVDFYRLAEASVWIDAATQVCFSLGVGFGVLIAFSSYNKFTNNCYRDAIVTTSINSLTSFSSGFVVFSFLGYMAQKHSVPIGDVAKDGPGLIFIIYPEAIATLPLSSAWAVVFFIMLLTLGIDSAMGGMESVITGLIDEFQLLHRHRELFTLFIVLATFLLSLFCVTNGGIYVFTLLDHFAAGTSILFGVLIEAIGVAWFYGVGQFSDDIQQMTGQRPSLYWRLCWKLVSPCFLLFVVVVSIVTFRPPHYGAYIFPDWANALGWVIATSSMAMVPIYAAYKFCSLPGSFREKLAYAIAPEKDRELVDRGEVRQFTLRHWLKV
Text: (§1) All mutants on hDAT were generated based on the predictions made using our computational model, as described previously using site-directed mutagenesis based on the wild-type hDAT (WT hDAT) sequence (NCBI, cDNA clone MGC: 164,608 IMAGE: 40,146,999) (Quizon et al. [2016]). The combination of hDAT mutations on Asp206 and His547 (Aspartic acid 206 to leucine and histidine 547 to alanine, D206L/H547A) were predicted to eliminate two hydrogen bonds between Tat and hDAT. In addition, the combination of mutations on Tyr88, Asp206, and His547 (tyrosine88 to phenylalanine and aspartic acid 206 to leucine and histidine 547 to alanine, Y88F/D206L/H547A) were predicted to eliminate three hydrogen bonds from the Tat-hDAT complex. Two extracellular cysteine90 and cysteine306 residues on WT hDAT were mutated to alanine as E2C hDAT (C90A/C306A hDAT), rendering the E2C hDAT MTSET-insensitive background (Pedersen et al. [2014]). A triple mutation of the two cysteine90 and 306 residues to alanine and […] to cysteine on WT hDAT was generated as E2C-I159C hDAT (C90A/C306A/I159C) for MTSET-sensitive construct. A combination of C90A/C306A/H547A was generated as E2C/H547A hDAT for MTSET-insensitive control for H547A. To determine whether H547A-enhanced DA transport is mediated by changing transporter conformation, two combinations of C90A/C306A/I159C/H547A and C90A/C306A/I159A/H547A were generated as E2C-I159C/H547A and E2C-I159A/H547A for positive and negative controls for MTSET sensitive background, respectively. Synthetic cDNA encoding hDAT subcloned into pcDNA3.1+ (provided by Dr. Haley E Melikian, University of Massachusetts) was used as a template to generate mutants using site-directed mutagenesis performed by GENEWIZ (South Plainfield, NJ). DNA sequencing was also performed by GENEWIZ to confirm the sequences of the mutant constructs. Plasmid DNA were propagated and purified using the Qiagen Hi-speed maxi prep plasmid DNA isolation kit (Qiagen, Valencia, CA, USA).
(§2) This assay was performed based on the previous report with minor modifications (Loland et al. [2004], [2008]). First, we generated five WT hDAT based plasmid construct for MTSET-insensitive or sensitive background as we described above. HEK293 cells were grown in poly-d-lysine coated plates at a density of 1 × 10^5 cells/cm^2 were transfected with different E2C- associated hDAT background constructs: E2C hDAT, E2C-I159C hDAT, E2C/H547A hDAT, E2C-I159C/H547A or E2C-I159A/H547A. Twenty-four hours after the transfection, cells were washed twice with 1× KRH buffer, and preincubated with or without the presence of 10 µM nomifensine (for non-specific uptake) and MTSET for 10 min at room temperature. MTSET at 1 mM final concentration was chosen based on a pilot study on optimizing MTSET concentrations (0.1, 0.5 or 1.0 mM). […] Because MTSET is easily hydrolyzed in solution, the amount needed for a 10 × stock was weighed out and dissolved in 1 × KRH buffer just right before adding to the assigned wells, for a 10-fold dilution (final concentration of 1 mM in final volume of 250 µl). […] Cells were immediately washed twice with ice-cold 1 × KRH buffer to terminate the reaction and were lysed rapidly with the addition of 1 % SDS. Cell lysates were collected after incubation for 1 h at room temperature and radioactivity was determined the next day.

[2] = biological target: T2, E2C hDAT (C90A/C306A hDAT) (Homo sapiens, UniProt Q01959, C306A/C90A); test: MTSET assay, [3H]DA uptake in HEK293 cells; format: cell-based
T2 construct: expressed in transfected cells; host or cells: HEK293 cells, transient, pcDNA3.1+
T2 sequence (Q01959 1-620 C90A/C306A): T1 sequence (Q01959 1-620 C90A/I159C/C306A) with C159I
Text: as §1, §2

[3] = E2C, 1 mM MTSET, HEK293, Fig. 8b

Compound: C[N+](C)(C)CCSS(C)(=O)=O [MTSET, [2-(trimethylammonium)ethyl]-methanethiosulfonate]
- inhibition of [3H]DA uptake relative to no MTSET addition ([1]; 1 mM MTSET, 10 min, HEK293, pilot study Fig. 8a): 55%
- [3H]DA uptake in the presence of MTSET ([1]; 1 mM MTSET, HEK293, Fig. 8b): 46.0 ± 6.0
- effect on [3H]DA uptake ([1]; MTSET 0.1, 0.5, 1.0 mM, pilot study Fig. 8a): concentration-dependently inhibited
- [3H]DA uptake in the presence of MTSET [2, 3]: 86.5 ± 6.0
- effect of MTSET on DA uptake [2, 3]: no effect
- effect on [3H]DA uptake ([2]; E2C-hDAT, MTSET 0.1, 0.5, 1.0 mM, pilot study Fig. 8a): no effect
